The subject of one series is Pseudomonas aeruginosa. Description: Microorganism assimilation. Particulars: for OD (turbidity): 660 nm; for Assimilation by microorganism: conclusion from Table 8.
Series [1] can be described thus: Fixing effect: HS-GC (II), analysis of volatilized portion after standing 15 minutes. In kind it is physicochemical. Particulars: controlling agent 15%, model perfume 5%. The procedure: (§1) Then, the fixing effect was evaluated by a second head space gas chromatographic (II) method (HS-GC (II)). Specifically, a perfume containing 0.7 g of a perfume controlling agent was coated on a sheet of paper having a predetermined thickness, area (11.5 × 7.5 cm), and weight (about 2.9 g). The coated paper was allowed to stand for 15 minutes in an open space in a room (6 × 4 × 2.5 m) maintained at a humidity of 50% at a ventilation rate of 1,500 m^3 /hr. The paper was then transferred into a 1,000 ml Erlenmeyer flask, and the flask was tightly sealed. After a lapse of 15 minutes, the volatilized portion was collected and analyzed by gas chromatography under the conditions shown Table A above. Furthermore, the residue on the paper was extracted with acetone, and analyzed by gas chromatography using conditions shown in Table B below.
(§2) The composition of the model perfume used was as follows:
Model Perfume: 5% by weight
95% Ethanol: 95% by weight
The composition of the perfume containing a perfume controlling agent was as follows:
Perfume Controlling Agent: 15% by weight
95% Ethanol: 80% by weight

The nature of series [2]: Acute oral toxicity (LD50). Particulars: for LD50: acute oral toxicity.
Series [3] can be described thus: Fixing effect: analysis of residue on paper after standing 15 minutes. In kind it is physicochemical. As for the experimental part: as §1
Column: 5% FFAP (free fatty acid polyester; a trade name for a product of Nippon Chromato Co., Ltd.) on diatomaceous earth (2m)
Column Temperature: 80° C (5 minutes, isothermal) to 220° C (4° C/min.)
Injector Temperature: 260° C
Detector Temperature: 260° C
Detector: Flame Ionization Detector
Carrier Gas: He (40 ml/min.)
as §2
The values shown in Table 5 above were obtained by calculating the areas of the perfumes while the area of musk ketone measured by gas chromatography was taken as 1. (This calculating procedure was adopted because musk ketone has a high boiling point, and scarcely volatilizes at 30° C.)

For the next series, the system named is skin of a guinea pig. Description: Cumulative irritation on the skin of a guinea pig. Particulars: 0.3 ml three times at 24 hour intervals, intact skin. In kind it is in vivo. The procedure: The cumulative irritation on the skin of a guinea pig was evaluated by coating 0.3 ml of a test agent on intact skin of the guinea pig and judging the skin reaction after a lapse of 24 hours, then coating the test agent in an amount of 0.3 ml on the same site twice, each at 24 hour intervals, and judging the reaction of the skin after a lapse of 72 hours (after coating three times).

A further series concerns skin of an albino rabbit. Put plainly: Primary irritation of the skin of an albino rabbit. In kind it is in vivo. Particulars: 0.3 ml, intact and abraded area, 24 hours. The procedure:
The primary irritation of the skin of an albino rabbit was determined by adhering 0.3 ml of a test agent on a lint cloth patch, applying the cloth to an intact area and an abraded area of the skin of the back of the albino rabbit, and evaluating the skin reactions at these two areas after a lapse of 24 hours. Then, an overall evaluation was made.

Series [4] is described as follows: Stabilizing effect on octanal (APHA color). In kind it is physicochemical. The note with it: 37° C, 1 month; original APHA 15; 50% controlling agent added or octanal alone. As for the experimental part: Octanal was selected as a single perfume, and the stabilizing effect of the perfume controlling agent was determined.
Amount of Perfume Controlling Agent: 50% based on the octanal (in the case of both DIBA and DIAA)
Test Temperature and Period: 37° C, one month (checked every week)
Items Evaluated: Acid value (AV), carbonyl value (COV), APHA color
In the test, a 100 ml brown bottle boiled in water for 12 hours was used, and the head space of the bottle was purged with nitrogen gas after the octanal had been introduced into the bottle.
Specifically, the color of a solution obtained by diluting 1 ml of a standard original color liquid (octanal) with water exactly to a volume of 100 ml is taken as APHA No. 5, and the APHA color number is increased by a multiple of 5 (as 10, 15, 20 . . . ) for every 1 ml increase of the original liquid.

The mark [5] stands for this setting: Linalyl Acetate (not present: 39.0%).
Where [6] appears, read: Musk ketone (not present: 0.0%).
Setting [7] is: Citral (not present: 1.5), area of musk ketone taken as 1.
[8] abbreviates: Limonene (not present: 0.3), area of musk ketone taken as 1.
The mark [9] stands for this setting: Linalool (not present: 6.4), area of musk ketone taken as 1.
Setting [10] is: Linalyl Acetate (not present: 5.1), area of musk ketone taken as 1.
The mark [11] stands for this setting: Musk Ketone (reference, taken as 1; not present: 1.0).
Where [12] appears, read: Pinene (not present: 0.0), area of musk ketone taken as 1.

Structures can show the parent of a compound that is named as a salt.

Method for Pseudomonas aeruginosa: 100 ml of the above liquid medium was placed in a 500 ml Sakaguchi flask, and sterilized at 120° C for 15 minutes in an autoclave in a customary manner. After cooling, the culture medium was inoculated with a prescribed amount of a suspension of the pre-cultured microorganism and cultivated at 30° C with shaking 120 times per minute.
Changes with time in the pH, turbidity, number of living cells were determined.
The turbidity was determined as follows: 2 ml of the culture broth was collected, and the precipitate was separated with a centrifugal separator. The precipitate was washed with acetone, and suspended in 2 ml of distilled water. The turbidity (OD) of the suspension at 660 nm was measured.

For `CC(C)OC(=O)CCCCC(=O)OC(C)C` [Diisopropyl Adipate, diisopropyl adipate], the pH in the series with Pseudomonas aeruginosa (0 days elapsed) was 6.90; in the series with Pseudomonas aeruginosa (2 days elapsed), 6.90; in the series with Pseudomonas aeruginosa (7 days elapsed), 5.32; in the series on Pseudomonas aeruginosa (14 days elapsed) it was 4.22. Moreover, the “Number of Living Cells” value in the series with Pseudomonas aeruginosa (2 days elapsed) is on record as 4.0 × 10^5; in the series on Pseudomonas aeruginosa (7 days elapsed), 1.9 × 10^7; in the series on Pseudomonas aeruginosa (14 days elapsed) it was < 10^3. The “OD (turbidity)” value in the series on Pseudomonas aeruginosa (2 days elapsed) is 0.005; in the series on Pseudomonas aeruginosa (7 days elapsed) it was 0.26; in the series on Pseudomonas aeruginosa (14 days elapsed) it was 0.46. Further, the Assimilation by microorganism entry in the series with Pseudomonas aeruginosa is “assimilated very well”.

For `CCOC(=O)c1ccccc1C(=O)OCC` [Diethyl Phthalate, diethyl phthalate], the pH in the series with Pseudomonas aeruginosa (0 days elapsed), in the series on Pseudomonas aeruginosa (2 days elapsed), in the series on Pseudomonas aeruginosa (7 days elapsed) and in the series on Pseudomonas aeruginosa (14 days elapsed) was 6.86 each time. Also, the “Number of Living Cells” value with Pseudomonas aeruginosa (2 days elapsed) was 2.5 × 10^6; with Pseudomonas aeruginosa (7 days elapsed) it was 4.2 × 10^4; in the series with Pseudomonas aeruginosa (14 days elapsed) it was 5.2 × 10^5. The “OD (turbidity)” value was determined as 0.001 in the series with Pseudomonas aeruginosa (2 days elapsed), 0.001 with Pseudomonas aeruginosa (7 days elapsed) and 0 in the series with Pseudomonas aeruginosa (14 days elapsed). For the same molecule, the Assimilation by microorganism entry with Pseudomonas aeruginosa was “not assimilated”. The “Analysis of Volatilized Portion after Standing 15 Minutes (HS-GC (II) Method)” value (shortened to “Analysis of Volatilized Portion”) in series [1] (Citral (not present: 3.5%)) is listed as 1.2%; in series [1] (Limonene (not present: 2.6%)) it was 31.3%; in series [1] (Linalool (not present: 45.2%)) it was 40.5%; in series [1] (setting [5]) it was 18.4%; in series [1] (setting [6]), 0.0%; in series [1] (Pinene (not present: 0.2%)), 0.9%.

Take dipropylene glycol: the LD50 in series [2] was 17.6 mL/kg. Also, the pH in the series with Pseudomonas aeruginosa (0 days elapsed) worked out at 6.84; with Pseudomonas aeruginosa (2 days elapsed) it was 6.84; in the series with Pseudomonas aeruginosa (7 days elapsed), 6.82; in the series with Pseudomonas aeruginosa (14 days elapsed), 6.82. In addition, the “Number of Living Cells” value is listed as 3.1 × 10^6 with Pseudomonas aeruginosa (2 days elapsed), 7.2 × 10^7 in the series on Pseudomonas aeruginosa (7 days elapsed) and 4.7 × 10^6 in the series on Pseudomonas aeruginosa (14 days elapsed). Besides, the “OD (turbidity)” value with Pseudomonas aeruginosa (2 days elapsed) amounted to 0; in the series on Pseudomonas aeruginosa (7 days elapsed), 0.005; with Pseudomonas aeruginosa (14 days elapsed), 0. Besides, the Assimilation by microorganism result with Pseudomonas aeruginosa was “not assimilated”. The Analysis of Residue on Paper after Standing 15 Minutes (Area Ratio) in series [3] (setting [7]) was found to be 1.1; in series [3] (setting [8]), 0; in series [3] (setting [9]) it was 4.9; in series [3] (setting [10]) it was 4.1; in series [3] (setting [11]) it was 1; in series [3] (setting [12]), 0. Further, the “Analysis of Volatilized Portion” value in series [1] (Citral (not present: 3.5%)) was found to be 3.7%; in series [1] (Limonene (not present: 2.6%)), 2.7%; in series [1] (Linalool (not present: 45.2%)), 42.8%; in series [1] (setting [5]) it was 40.0%; in series [1] (setting [6]), 0.0%; in series [1] (Pinene (not present: 0.2%)), 0.2%.

On to `CCCCC(CC)COC(=O)CCCCC(=O)OCC(CC)CCCC` (centres unmarked) [Di-2-ethylhexyl Adipate, di-2-ethylhexyl adipate], for which the pH in the series on Pseudomonas aeruginosa (0 days elapsed) turned out to be 6.86; in the series with Pseudomonas aeruginosa (2 days elapsed), 6.60; with Pseudomonas aeruginosa (7 days elapsed) it was 6.30; with Pseudomonas aeruginosa (14 days elapsed), 6.10. Besides, the “Number of Living Cells” value in the series with Pseudomonas aeruginosa (2 days elapsed) is 1.3 × 10^6; in the series on Pseudomonas aeruginosa (7 days elapsed) it was 5.0 × 10^7; in the series on Pseudomonas aeruginosa (14 days elapsed), 1.4 × 10^9. Further, the “OD (turbidity)” value in the series with Pseudomonas aeruginosa (2 days elapsed) came out at 0.008; with Pseudomonas aeruginosa (7 days elapsed), 0.01; in the series on Pseudomonas aeruginosa (14 days elapsed), 0.15. Also, the Assimilation by microorganism result in the series with Pseudomonas aeruginosa is “gradually assimilated as time passed”.

`CC(O)CO` (centres unmarked) [Propylene Glycol] returned an LD50 in series [2] of 23.9 mL/kg.

In series [2], `CCOC(=O)CC(O)(CC(=O)OCC)C(=O)OCC` [Triethyl Citrate] gave an LD50 of more than 25 mL/kg.

On to `CC(C)CCOC(=O)CCCCC(=O)OCCC(C)C` (single isomer, unassigned) [DIAA, diisoamyl adipate], for which the “Cumulative irritation on the skin” value with skin of a guinea pig is recorded as “did not exhibit irritating effects”. In addition, the “Primary irritation of the skin” value in the series with skin of an albino rabbit was “did not exhibit irritating effects”. Moreover, the LD50 in series [2] was more than 25 mL/kg. Besides, the “Acute toxicity compared with conventional perfume controlling agents” value in series [2] (conclusion from Table 1) was “equal to, or lower than, other conventional perfume controlling agents”. Further, the pH in the series with Pseudomonas aeruginosa (0 days elapsed) was 6.90; in the series with Pseudomonas aeruginosa (2 days elapsed), 4.74; in the series with Pseudomonas aeruginosa (7 days elapsed), 4.40; in the series with Pseudomonas aeruginosa (14 days elapsed), 4.30. Also, the figures for the “Number of Living Cells” value in the series on Pseudomonas aeruginosa (2 days elapsed), in the series with Pseudomonas aeruginosa (7 days elapsed) and in the series with Pseudomonas aeruginosa (14 days elapsed) were 1.6 × 10^6, < 10^2 and < 10^2, respectively. The “OD (turbidity)” value with Pseudomonas aeruginosa (2 days elapsed) was 0.105; in the series on Pseudomonas aeruginosa (7 days elapsed), 0.05; in the series with Pseudomonas aeruginosa (14 days elapsed), 0.055. For the same molecule, the Assimilation by microorganism result in the series on Pseudomonas aeruginosa is listed as “assimilated very well”. The “APHA color of octanal” value in series [4] is “about 30 APHA”.

Regarding `CCCCCCCC=O` [octanal], the “APHA color of octanal” value in series [4] is listed as more than 300 APHA.

`O=C(OCc1ccccc1)c1ccccc1` [Benzyl Benzoate, benzyl benzoate]: the Analysis of Residue on Paper after Standing 15 Minutes (Area Ratio) in series [3] (setting [7]) stood at 1.8; in series [3] (setting [8]) it was 0.38; in series [3] (setting [9]) it was 8.1; in series [3] (setting [10]), 8; in series [3] (setting [11]), 1; in series [3] (setting [12]), 0. Also, the “Analysis of Volatilized Portion” value in series [1] (Citral (not present: 3.5%)) was 1.6%; in series [1] (Limonene (not present: 2.6%)), 31.3%; in series [1] (Linalool (not present: 45.2%)), 37.7%; in series [1] (setting [5]), 20.6%; in series [1] (setting [6]), 0.0%; in series [1] (Pinene (not present: 0.2%)), 1.3%.

As for `CCCCCCCCCCCCCC(=O)OC(C)C` [Isopropyl Myristate], the LD50 in series [2] was more than 25 mL/kg.

The values above are taken from patent US4110626A, “Method for improving the quality of the fragrance of perfumes using aliphatic dibasic acid diesters” (Shiseido Co., Ltd., priority 1976, dated 1978).
